According to ChEMBL document CHEMBL1201862, “PubChem BioAssay data set” (2004):
The source made the active and inactive calls.

Assays:
[1] = molecular target: Lysosomal acid glucosylceramidase (Homo sapiens, UniProt P04062); assay: Dose response cell-based high throughput screening assay to identify enhancers of beta-glucosidase activity. [Related pubchem assays: 784 ]; assay type: functional
[2] = molecular target: T1, Dual specificity protein phosphatase 6 (Rattus norvegicus, UniProt Q64346)
T1 sequence (Q64346 whole entry): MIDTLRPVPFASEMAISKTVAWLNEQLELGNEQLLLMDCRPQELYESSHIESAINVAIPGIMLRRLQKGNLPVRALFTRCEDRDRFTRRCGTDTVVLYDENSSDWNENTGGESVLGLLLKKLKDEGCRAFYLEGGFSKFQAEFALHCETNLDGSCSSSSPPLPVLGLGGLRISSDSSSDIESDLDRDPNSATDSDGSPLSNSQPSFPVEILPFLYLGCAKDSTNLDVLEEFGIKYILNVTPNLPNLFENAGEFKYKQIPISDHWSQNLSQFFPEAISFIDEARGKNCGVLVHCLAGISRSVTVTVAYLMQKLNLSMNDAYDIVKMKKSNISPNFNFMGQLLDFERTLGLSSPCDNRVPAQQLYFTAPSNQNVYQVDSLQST

[3] = molecular target: T2, Tyrosine-protein phosphatase non-receptor type 7 (Homo sapiens, UniProt P35236); assay type: functional
T2 sequence (P35236 whole entry): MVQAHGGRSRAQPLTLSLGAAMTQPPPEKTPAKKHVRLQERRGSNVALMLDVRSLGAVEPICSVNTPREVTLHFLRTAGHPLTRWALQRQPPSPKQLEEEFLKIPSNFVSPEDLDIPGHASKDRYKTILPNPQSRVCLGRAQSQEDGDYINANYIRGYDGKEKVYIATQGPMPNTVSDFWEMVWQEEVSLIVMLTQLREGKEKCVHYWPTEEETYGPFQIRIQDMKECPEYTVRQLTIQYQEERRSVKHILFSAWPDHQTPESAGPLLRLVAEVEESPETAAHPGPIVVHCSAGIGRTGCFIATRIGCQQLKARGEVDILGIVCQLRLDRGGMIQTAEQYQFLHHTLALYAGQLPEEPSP

[4] = molecular target: T1, Dual specificity protein phosphatase 6; assay type: functional
[5] = molecular target: Glyceraldehyde-3-phosphate dehydrogenase (Homo sapiens, UniProt P04406)
Glyceraldehyde-3-phosphate dehydrogenase, sequence (P04406 whole entry): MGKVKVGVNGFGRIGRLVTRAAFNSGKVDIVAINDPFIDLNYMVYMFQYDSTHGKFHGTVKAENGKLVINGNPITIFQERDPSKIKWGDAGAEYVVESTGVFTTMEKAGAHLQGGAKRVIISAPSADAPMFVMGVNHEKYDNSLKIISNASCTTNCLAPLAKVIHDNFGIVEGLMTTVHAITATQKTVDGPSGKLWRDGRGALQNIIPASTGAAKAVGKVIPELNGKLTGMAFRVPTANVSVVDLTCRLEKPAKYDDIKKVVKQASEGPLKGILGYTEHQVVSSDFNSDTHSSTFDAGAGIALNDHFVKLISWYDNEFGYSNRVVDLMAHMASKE

[6] = mitochondrial function rescue without frataxin homolog – Friedreich's ataxia, plus single-dose screen, dose response (AID 1465); assay type: functional;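 further: yeast depleted of Yfh1p frataxin homolog grown on glycerol needing respiration; WST-1 tetrazolium dye reduction as measure of cellular dehydrogenase metabolic activity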
Troponin, cardiac muscle = Troponin, cardiac muscle (Homo sapiens, UniProt P19429+P45379+P63316); assay: Fluorescence-based biochemical high throughput dose response assay for activators of the calcium sensitivity of cardiac Regulated Thin Filaments (RTF). [Related pubchem assays (depositor defined):AID493008, AID493018, AID504382, AID504383]; assay type: protein-complex assay
[7] = Counterscreen for IDE inhibitors: Luminescence-based cell-based high throughput dose response assay to identify compounds that are cytotoxic to HEK cells. [Related pubchem assays: 434962 (Primary screen (IDE inhibitors in singlicate)), 449730 (Counterscreen (Cytotoxicity in triplicate)), 435028 (Confirmation (IDE inhibitors in triplicate)) …; assay type: functional; conditions: HEK293
Insulin-degrading enzyme = molecular target: T3, Insulin-degrading enzyme (Homo sapiens, UniProt P14735); assay: Dose Response: Fluorescence polarization-based cell-based high throughput dose response assay for inhibitors of insulin-degrading enzyme (IDE). [Related pubchem assays: 434962 (Primary screen (IDE inhibitors in singlicate)), 449730 (Counterscreen (Cytotoxicity in triplicate)), 435028 (Confirmation (IDE inhibitors in triplicate)), 434984 (Summary …; assay type: functional
T3 sequence (P14735 whole entry): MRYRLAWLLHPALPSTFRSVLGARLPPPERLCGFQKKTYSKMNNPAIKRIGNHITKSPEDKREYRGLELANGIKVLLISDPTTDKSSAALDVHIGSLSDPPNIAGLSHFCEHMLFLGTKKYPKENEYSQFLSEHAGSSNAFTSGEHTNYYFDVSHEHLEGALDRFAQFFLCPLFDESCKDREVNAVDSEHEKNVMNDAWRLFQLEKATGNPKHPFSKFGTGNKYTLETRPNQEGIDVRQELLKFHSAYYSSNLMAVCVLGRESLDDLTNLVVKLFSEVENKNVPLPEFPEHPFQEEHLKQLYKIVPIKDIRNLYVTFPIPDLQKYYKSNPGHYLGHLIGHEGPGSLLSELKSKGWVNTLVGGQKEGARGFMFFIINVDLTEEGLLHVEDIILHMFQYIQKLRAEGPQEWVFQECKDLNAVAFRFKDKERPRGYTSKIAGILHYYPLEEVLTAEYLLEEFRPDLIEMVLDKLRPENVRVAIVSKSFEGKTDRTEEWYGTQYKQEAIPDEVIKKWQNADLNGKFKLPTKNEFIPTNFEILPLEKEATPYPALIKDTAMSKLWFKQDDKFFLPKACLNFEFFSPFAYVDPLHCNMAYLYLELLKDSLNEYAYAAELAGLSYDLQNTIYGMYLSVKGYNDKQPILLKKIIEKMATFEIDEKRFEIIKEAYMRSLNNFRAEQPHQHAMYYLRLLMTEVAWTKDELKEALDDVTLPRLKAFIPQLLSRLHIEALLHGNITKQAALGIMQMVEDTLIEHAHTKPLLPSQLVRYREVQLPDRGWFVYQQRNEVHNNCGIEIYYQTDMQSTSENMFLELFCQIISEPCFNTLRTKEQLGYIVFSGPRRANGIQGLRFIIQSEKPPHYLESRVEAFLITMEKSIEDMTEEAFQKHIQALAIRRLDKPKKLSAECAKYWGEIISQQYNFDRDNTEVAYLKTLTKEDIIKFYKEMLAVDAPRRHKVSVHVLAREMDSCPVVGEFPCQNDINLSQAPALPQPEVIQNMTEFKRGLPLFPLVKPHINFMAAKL

Streptococcus = assay: Luminescence Microorganism-Based Dose Response Follow up to Identify Compounds Cytotoxic to Streptococcus. [Related pubchem assays: 1677 (Project Summary), 1915, 1914, 1902 (Retest at Dose), 1900 (Counter Screen), 1662 (Primary HTS)]; assay type: functional, organism-based
[8] = A Cell Based Assay for the Identification of Probe candidate Compounds with Anti- Venezuelan Equine Encephalitis virus. [Related pubchem assays: 2409, 2419, 1621, 2238, 2405, 2024, 2065, 2402, 2414, 1635, 1650, 2244 ]; assay type: functional
Vero [9] = assay: host cell viability loss, Vero E6 – synthesized analogs, cytotoxicity control for West Nile virus antiviral project, SAR follow-up (AID 2244); assay type: functional; conditions: Chlorocebus sabaeus
Vero [10] = assay: Vero cell viability after compound exposure – synthesized analogs, set II, cytotoxicity control for West Nile virus antiviral project, SAR follow-up (AID 2402); assay type: functional; conditions: Chlorocebus sabaeus
Vero [11] = assay: Vero 76 cell viability after compound exposure – Vero 76 cells, synthesized analogs, cytotoxicity control for West Nile virus antiviral project, SAR follow-up (AID 2414); assay type: functional; conditions: Chlorocebus sabaeus
HEK293 [12] = assay: PMA/Ionomycin induced NF-kB luciferase assay in 293- NF-kB-Luc stable cells. [Related pubchem assays: 1299, 1270, 1295, 1375, 1287, 1281, 1293, 1291, 1289, 1280, 465, 1364, 1282, 1372, 1365, 1370, 1367, 1366, 1269, 1373, 1292, 1290, 1302, 1371, 1283, 1271, 1294, 1374, 1368, 1369 ]; assay type: functional, cell-based; conditions: Homo sapiens
HEK293 [13] = assay: Cytotoxicity assay in HEK293 cells. [Related pubchem assays (depositor defined):AID1266, AID1269, AID1270, AID1271, AID1280, AID1281, AID1282, AID1283, AID1287, AID1289, AID1290, AID1291, AID1292, AID1293, AID1294, AID1295, AID1299, AID1302, AID1364, AID1365, AID1366, AID1367, AID1369, AID1370, AID1371, AID1372, AID1373, AID1374, AID1375, AID1384 …; assay type: functional, cell-based; conditions: Homo sapiens
[14] = molecular target: T4, Luciferin 4-monooxygenase (Photinus pyralis, UniProt P08659); assay: In vitro luciferase assay using purified luciferase. [Related pubchem assays: 1299, 1270, 1295, 1375, 1287, 1281, 1293, 1291, 1289, 1280, 465, 1364, 1282, 1372, 1365, 1370, 1367, 1366, 1266, 1373, 1292, 1290, 1302, 1371, 1283, 1271, 1294, 1374, 1368, 1369 ]
T4 sequence (P08659 whole entry): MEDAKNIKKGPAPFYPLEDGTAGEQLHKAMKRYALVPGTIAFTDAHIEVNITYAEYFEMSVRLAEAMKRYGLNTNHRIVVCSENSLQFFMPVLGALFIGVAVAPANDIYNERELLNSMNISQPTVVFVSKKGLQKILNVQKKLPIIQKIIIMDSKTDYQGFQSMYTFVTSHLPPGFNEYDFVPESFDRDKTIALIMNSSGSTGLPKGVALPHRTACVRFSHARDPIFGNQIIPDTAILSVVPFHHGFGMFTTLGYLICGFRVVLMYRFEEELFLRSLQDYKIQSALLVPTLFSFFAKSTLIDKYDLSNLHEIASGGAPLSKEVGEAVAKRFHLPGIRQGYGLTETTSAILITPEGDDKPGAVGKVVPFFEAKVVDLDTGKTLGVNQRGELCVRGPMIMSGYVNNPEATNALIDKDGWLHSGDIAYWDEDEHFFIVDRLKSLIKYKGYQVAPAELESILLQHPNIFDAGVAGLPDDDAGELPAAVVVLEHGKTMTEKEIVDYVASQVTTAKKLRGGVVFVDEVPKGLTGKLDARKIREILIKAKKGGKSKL

HEK293 [15] = assay: PMA/Ionomycin-induced IL-8 production in HEK293- NF-kB-Luc stable cells. [Related pubchem assays: 1299, 1295, 1375, 1287, 1281, 1293, 1291, 1289, 1280, 465, 1364, 1282, 1372, 1365, 1367, 1366, 1266, 1269, 1373, 1292, 1290, 1302, 1371, 1283, 1271, 1294, 1374, 1368, 1369 ]; assay type: functional, cell-based; conditions: Homo sapiens
HEK293 [16] = assay: TNF Induced NF-kB Luciferase in 293-NF-kB-Luc Stable Cells. [Related pubchem assays: 1266, 1299, 1269, 1373, 1292, 1290, 1302, 1371, 1283, 1270, 1295, 1271, 1375, 1294, 1374, 1281, 1293, 1291, 1289, 1280, 465, 1368, 1364, 1282, 1372, 1365, 1369, 1370, 1367, 1366 ]; assay type: functional, cell-based; conditions: Homo sapiens
[17] = molecular target: T4, Luciferin 4-monooxygenase; assay: inhibition of purified Photinus pyralis luciferase – biochemical, luminescence, dose response (AID 1891)
cells = assay type: functional, cell-based
[18] = Luminescence Cell-Based Dose Response HTS to Identify Inhibitors of 5'UTR Stem-Loop Driven Prion Protein mRNA Translation in H4 Neuroglioblastoma Cells. [Related pubchem assays: 1827 (Project Summary), 1813 (Primary HTS)]; assay type: functional
HT-1080 = assay: HT1080 cell viability loss – fluorescence readout (AID 620); assay type: functional, cell-based; conditions: Homo sapiens
[19] = molecular target: Mitogen-activated protein kinase 10 (Homo sapiens, UniProt P53779); assay: Dose response biochemical screening assay for inhibitors of c-Jun N-Terminal Kinase 3 (JNK3). [Related pubchem assays: 746 ]
Mitogen-activated protein kinase 10, sequence (P53779 whole entry, the tested form may be a part): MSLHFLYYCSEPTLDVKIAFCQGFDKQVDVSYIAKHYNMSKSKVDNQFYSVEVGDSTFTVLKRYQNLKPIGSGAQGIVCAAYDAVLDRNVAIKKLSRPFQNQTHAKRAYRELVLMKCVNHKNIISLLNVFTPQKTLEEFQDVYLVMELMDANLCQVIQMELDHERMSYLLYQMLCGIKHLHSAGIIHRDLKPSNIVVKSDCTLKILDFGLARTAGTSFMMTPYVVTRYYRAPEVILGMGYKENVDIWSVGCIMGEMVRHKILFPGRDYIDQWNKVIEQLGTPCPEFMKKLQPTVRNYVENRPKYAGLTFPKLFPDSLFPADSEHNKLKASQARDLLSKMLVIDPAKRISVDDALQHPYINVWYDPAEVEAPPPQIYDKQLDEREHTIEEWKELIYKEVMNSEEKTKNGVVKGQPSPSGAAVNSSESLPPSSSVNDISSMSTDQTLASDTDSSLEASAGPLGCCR

[20] = luciferase reporter signal reduction – luminescence, H4-C neuroglioblastoma cells, dose response (AID 2458); assay type: functional, cell-based;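 further: H4 neuroglioblastoma cells stably carrying a luciferase reporter gene fusion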
[21] = HEK-293T viability loss after treatment – luminescence, T-cell screen hits, cytotoxicity control for TCR NF-kB inhibitor project, dose response (AID 489026); assay type: functional, cell-based;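 further: cells exposed to compound about 14 hours before the viability readout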
[22] = molecular target: T4, Luciferin 4-monooxygenase; assay: Counter Screen for Luciferase-based Assay Positives. [Related pubchem assays: 620, 618, 411 ]
[23] = luciferase reporter signal suppression in cells – H4 neuroglioma cells, luminescence, dose response (AID 1990); assay type: functional, cell-based
[24] = alpha-synuclein stem-loop luciferase translation blockers – H4 neuroglioma cells, luminescence, confirmation (AID 1988); assay type: functional, cell-based
[25] = Luminescence Cell-Based Dose Confirmation HTS to Identify Inhibitors of Platelet Dense Granule Release. [Related pubchem assays: 1663 (Primary HTS), 1678 (Summary of Project)]; assay type: functional
[26] = Luminescence-based counterscreen assay for KLF5 inhibitors: dose response cell-based high throughput screening assay to identify cytotoxic compounds using the IEC-6 intestinal epithelial cell line. [Related pubchem assays: 1700 (Primary screen.), 1834 (Confirmation screen.), 1858 (Summary AID.), 1905 (Counterscreen.)]; assay type: functional
[27] = alpha-synuclein stem-loop translation blockers – luminescence, H4 neuroglioblastoma cells, dose confirmation, confirmation (AID 2454); assay type: functional, cell-based;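 further: H4 neuroglioblastoma cells carrying an alpha-synuclein 5'UTR luciferase reporter; potency for inhibition of the luciferase signal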
[28] = molecular target: Dual specificity tyrosine-phosphorylation-regulated kinase 1A (Rattus norvegicus, UniProt Q63470); assay type: biochemical, Homo sapiens

Lysosomal acid glucosylceramidase, sequence (P04062 whole entry): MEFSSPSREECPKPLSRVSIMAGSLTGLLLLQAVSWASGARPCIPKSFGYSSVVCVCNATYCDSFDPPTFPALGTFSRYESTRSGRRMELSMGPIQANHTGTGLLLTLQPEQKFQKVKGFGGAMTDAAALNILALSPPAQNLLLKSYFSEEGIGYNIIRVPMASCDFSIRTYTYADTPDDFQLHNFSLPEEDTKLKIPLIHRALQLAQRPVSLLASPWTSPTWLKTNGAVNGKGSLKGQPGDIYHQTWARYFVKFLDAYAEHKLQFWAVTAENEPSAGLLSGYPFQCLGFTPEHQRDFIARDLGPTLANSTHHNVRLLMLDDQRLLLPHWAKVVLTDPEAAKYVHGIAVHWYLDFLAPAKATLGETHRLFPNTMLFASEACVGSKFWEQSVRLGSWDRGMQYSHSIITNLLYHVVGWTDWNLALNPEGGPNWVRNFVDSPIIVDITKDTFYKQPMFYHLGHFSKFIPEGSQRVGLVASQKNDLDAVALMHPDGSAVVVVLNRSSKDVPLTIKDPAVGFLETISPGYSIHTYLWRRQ

Compound: COc1ccc(CNC(=O)CCCNS(=O)(=O)c2cccc3nonc23)cc1
- EC50 [1]: > 50 µM (not active)

Compound: O=C(O)C1Nc2c(F)cccc2C2C=CCC12 (stereo not drawn)
- IC50 [2]: 19.8 µM (active)
- IC50 [3]: 5.4 µM (active)
- IC50 [4]: 17.2 µM (active)
- IC50 [5]: > 100 µM (not active)

Compound: CCOC(=O)/C(=C/C1=CC(=C/N(C)C)/C(=O)O1)C(C)=O
- EC50 [6]: > 100 µM (active)
- EC50 (Troponin, cardiac muscle): 7.74 µM (active)
- IC50 [7]: > 55.7 µM (not active)
- IC50 (Insulin-degrading enzyme): 22.1 µM (not active)

Compound: O=C(CSc1cccs1)N1c2ccccc2Sc2ccccc21
- EC50 (Streptococcus): > 500 µM (not active)

Compound: COc1ccc(-c2csc(N(C(=O)c3ccccc3Cl)C(C)C)n2)cc1
- IC50 [8]: > 66.6 µM (active)
- CC50 (Vero [9]): 22.4 µM (active)
- CC50 (Vero [10]): 13.5 µM (active)
- CC50 (Vero [11]): 35.5 µM (active)

Compound: O=C(NC1CCCCCC1)c1ccc([N+](=O)[O-])o1
- EC50 (HEK293 [12]): 3.29 µM (active)
- EC50 (HEK293 [13]): > 8 µM (inactive)
- EC50 [14]: > 8 µM (not active)
- EC50 (HEK293 [15]): 4.02 µM (not active)
- EC50 (HEK293 [16]): > 8 µM (not active)

Compound: CCN1C=CC(=C2C(=O)c3ccccc3C2=O)C=C1
- EC50 [17]: 1.85 µM (active)
- EC50 (cells): 0.317 µM (active)
- EC50 [18]: < 0.1 µM (active)
- EC50 (HT-1080): > 50 µM (not active)
- IC50 [19]: 43.5 µM (not active)
- EC50 [20]: 0.324 µM (active)
- IC50 [21]: > 80 µM (inactive)
- EC50 [22]: 10.1 µM (active)
- EC50 [23]: < 0.1 µM (active)
- EC50 [24]: < 0.1 µM (active)
- EC50 [25]: 6.3 µM (active)
- IC50 [26]: 15 µM (not active)
- EC50 [27]: 0.247 µM (active)
- AC50 [28]: 13.6 µM (active)
